Measured values taken from patent publication US5235036A, “CRF analogs” (The Salk Institute for Biological Studies, priority 1991, dated 1993).
“Also recorded” adds a separate entry of the source. Like-named read-outs stand apart in the source and are kept apart here. Where a SMILES comes first, the peptide text is derived from it. Where no end group is shown, it is not given here. [ ]: non-standard residue; d: D form.

Experiments:
[1] = tested on: secretion of ACTH and β-END-LI; test: in vivo testing: stimulation of the secretion of ACTH and β-END-LI; details: test system not stated in the example
Description: (§1) The synthetic peptides [Ala^20 ]-oCRF and [Ala^39 ]-oCRF are examined for their effects on the secretion of ACTH and β-endorphin in vitro and also in vivo. The potency of synthetic oCRF analogs to stimulate the secretion of ACTH and β-endorphin by cultured rat pituitary cells is measured using the procedure as generally set forth in Endocrinology, 91, 562 (1972) and compared against synthetic oCRF. [Ala^20 ]-oCRF is considered to be about 2 to 4 times as potent as the native hormone. […] In vivo testing which can be carried out using the general procedure set forth in C. Rivier et al., Science.

[2] = lowering of blood pressure when injected peripherally; format: in vivo; details: e.g. intravenously
[3] = background statement; mammals; cited from earlier work
[4] = tested on: ACTH and β-endorphin-like activities (β-END-LI); details: in vitro and in vivo; background statement; cited from earlier work
gastric acid production = details: background statement; cited from earlier work
[5] = tested on: cultured rat pituitary cells; test: secretion of ACTH and β-endorphin by cultured rat pituitary cells, compared against synthetic oCRF; format: cell-based
Description: as §1

Compound | biopotency / stimulation of the secretion of ACTH and β-END-LI [1] | lowering of blood pressure [2] | lowering of blood pressure [3] | stimulation of ACTH and β-endorphin secretion / β-END-LI [4] | also measured
SEEPPISLDLTFHLLREVLEMARAEQLAQQAHSNRKLMAII [[Ala^39 -rCRF] | biopotent, stimulates the secretion of ACTH and β-END-LI | causes significant lowering of blood pressure |  |  | 
Ser-Glu-Glu-Pro-Pro-Ile-Ser-Leu-Asp-Leu-Thr-Phe-His-Leu-Leu-Arg-Glu-Val-Leu-Glu-Met-Ala-Arg-Ala-Glu-Gln-Leu-Ala-Gln-Gln-Ala-His-Ser-Asn-Arg -Lys-Leu-Met-Glu-Ile-Ile (SEEPPISLDLTFHLLREVLEMARAEQLAQQAHSNRKLMEII) [rCRF] |  |  | substantially lower blood pressure | stimulate ACTH and β-endorphin-like activities (β-END-LI) in vitro and in vivo | 
SEEPPISLDLTFHLLREVLAMARAEQLAQQAHSNRKLMEII [[Ala^20]-rCRF] | biopotent and stimulates the secretion of ACTH and β-END-LI | causes significant lowering of blood pressure |  |  | 
SQEPPISLDLTFHLLREVLAMTKADQLAQQAHSNRKLLDIA [[Ala^20]-oCRF] |  | a significant lowering of blood pressure |  |  | 
SQEPPISLDLTFHLLREMLEMAKAEQEAEQAALNRLLLEEA [AHC] |  |  | substantially lower blood pressure | stimulate ACTH and β-endorphin-like activities (β-END-LI) in vitro and in vivo | 
SQEPPISLDLTFHLLREVLAMTKADQLAQQAHSNRKLLAIA [[Ala^20,29]-oCRF] | biopotent | lowers blood pressure |  |  | 
Ser-Gln-Glu-Pro-Pro-Ile-Ser-Leu-Asp-Leu-Thr-Phe-His-Leu-Leu-Arg-Glu-Val-Leu-Glu-Met-Thr-Lys-Ala-Asp-Gln-Leu-Ala-Gln-Gln-Ala-His-Ser-Asn-Arg Lys-Leu-Leu-Asp-Ile-Ala (SQEPPISLDLTFHLLREVLEMTKADQLAQQAHSNRKLLDIA) [oCRF] |  |  | lowers blood pressure in mammals; also recorded: substantially lower blood pressure | stimulates the secretion of ACTH and β-endorphin; also recorded: stimulate ACTH and β-endorphin-like activities (β-END-LI) in vitro and in vivo | gastric acid production (gastric acid production): inhibits gastric acid production
SQEPPISLDLTFHLLREVLEMTKADQLAQQAHSNRKLLAIA [[Ala^39]-oCRF] |  | a significant lowering of blood pressure |  |  | increase in biopotency in vitro over the native hormone [5]: ~85%
CC[C@H](C)[C@H](NC(=O)[C@@H](NC(=O)[C@H](CCC(=O)O)NC(=O)[C@H](CCSC)NC(=O)[C@H](CC(C)C)NC(=O)[C@H](CCCCN)NC(=O)[C@H](CCCNC(=N)N)NC(=O)[C@H](CC(N)=O)NC(=O)[C@H](CO)NC(=O)[C@H](Cc1c[nH]cn1)NC(=O)[C@H](C)NC(=O)[C@H](CCC(N)=O)NC(=O)[C@H](CCC(N)=O)NC(=O)[C@H](C)NC(=O)[C@H](CC(C)C)NC(=O)[C@H](CCC(N)=O)NC(=O)[C@H](CCC(=O)O)NC(=O)[C@H](C)NC(=O)[C@H](CCCNC(=N)N)NC(=O)[C@H](C)NC(=O)[C@H](CCSC)NC(=O)[C@H](C)NC(=O)[C@H](CC(C)C)NC(=O)[C@@H](NC(=O)[C@H](CCC(=O)O)NC(=O)[C@H](CCCNC(=N)N)NC(=O)[C@H](CC(C)C)NC(=O)[C@H](CC(C)C)NC(=O)[C@H](Cc1c[nH]cn1)NC(=O)[C@@H](Cc1ccccc1)NC(=O)[C@@H](NC(=O)[C@H](CC(C)C)NC(=O)[C@H](CC(=O)O)NC(=O)[C@H](CC(C)C)NC(=O)[C@H](CO)NC(=O)[C@@H](NC(=O)[C@@H]1CCCN1C(=O)[C@@H]1CCCN1C(=O)[C@@H](N)CCC(=O)O)[C@@H](C)CC)[C@@H](C)O)C(C)C)[C@@H](C)CC)C(N)=O [[D-Phe^12, Ala^20]-rCRF(3-41)] (H-EPPISLDLT[dF]HLLREVLAMARAEQLAQQAHSNRKLMEII-NH2) | biopotent | causes significant lowering of blood pressure |  |  | 
